Source: patent US20240262795A1, “PYRAZINE COMPOUNDS AS INHIBITORS OF FLT3” (Biomea Fusion, Inc., priority 2021, published 2024)
Where two headings read alike, the source gives them in different places.

What was measured:
MOLM-13 = assay: Proliferation inhibition, CellTiter-Glo, MOLM-13; type: cell-based, human; settings: for IC50: Homo sapiens, MOLM-13 cells
In short: (§1)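 About 10,000 cells per well in RPMI-1640 with 10% FBS. Compounds added 2 h after seeding at eight concentrations in duplicate (0.2% DMSO as 100% proliferation), then incubated ~96 h at 37° C, 5% CO2. ATP measured by CellTiter-Glo luminescence; IC50 from four-parameter logistic fit.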

FLT3-ITD = target: T1, FLT3-ITD (Homo sapiens, UniProt P36888, DUP595-601); assay: FLT3-ITD Lance Ultra TR-FRET kinase assay; type: biochemical
T1 construct: purchased Signalchem F-12-12CG-10
T1 sequence (P36888 with tags, fused parts or gaps DUP595-601 limits assumed): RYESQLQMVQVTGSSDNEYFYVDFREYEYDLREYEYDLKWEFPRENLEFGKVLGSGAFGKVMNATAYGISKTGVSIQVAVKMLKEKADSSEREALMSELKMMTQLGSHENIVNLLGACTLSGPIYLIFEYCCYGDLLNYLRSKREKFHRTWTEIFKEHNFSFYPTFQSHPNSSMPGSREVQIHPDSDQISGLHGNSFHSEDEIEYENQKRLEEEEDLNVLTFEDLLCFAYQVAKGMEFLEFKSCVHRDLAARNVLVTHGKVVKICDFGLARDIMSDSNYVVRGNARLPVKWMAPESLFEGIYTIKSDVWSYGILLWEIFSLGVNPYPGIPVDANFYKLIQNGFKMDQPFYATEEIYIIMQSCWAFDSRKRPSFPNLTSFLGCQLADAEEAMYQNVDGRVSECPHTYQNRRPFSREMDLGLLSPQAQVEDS
In short: (§2)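 Lance Ultra TR-FRET with 50 nM ULight-JAK-1 (Tyr1023) peptide, Eu-anti-phosphotyrosine (PT66) detection, in HEPES pH 7.5 buffer at 23° C, 30 min enzyme/compound preincubation. WT: 0.5 nM enzyme, 100 μM ATP, 30 min; ITD: 0.0625 nM, 50 μM ATP, 60 min. IC50 by four-parameter fit of 11-point 3× dilutions.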

MV-4-11 = assay: Proliferation inhibition, CellTiter-Glo, MV-4-11; type: cell-based, human; settings: for IC50: Homo sapiens
In short: as §1

WT FLT3 = target: T2, WT FLT3 (Homo sapiens, UniProt P36888); assay: WT FLT3 Lance Ultra TR-FRET kinase assay; type: biochemical
T2 construct: purchased Invitrogen PR4666C
T2 sequence (P36888 564-993 limits assumed): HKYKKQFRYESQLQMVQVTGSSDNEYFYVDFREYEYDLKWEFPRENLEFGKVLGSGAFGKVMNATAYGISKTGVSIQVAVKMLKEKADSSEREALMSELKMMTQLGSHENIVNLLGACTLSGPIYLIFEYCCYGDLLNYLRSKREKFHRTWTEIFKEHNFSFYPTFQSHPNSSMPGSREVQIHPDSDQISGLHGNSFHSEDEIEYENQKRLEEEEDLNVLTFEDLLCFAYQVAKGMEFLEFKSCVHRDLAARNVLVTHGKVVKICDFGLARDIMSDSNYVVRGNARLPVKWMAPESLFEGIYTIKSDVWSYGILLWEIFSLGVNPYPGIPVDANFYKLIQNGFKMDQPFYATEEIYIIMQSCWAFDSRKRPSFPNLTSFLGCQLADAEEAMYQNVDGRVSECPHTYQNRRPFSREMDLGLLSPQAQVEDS
In short: as §2

K-562 = assay: Proliferation inhibition, CellTiter-Glo, K-562; type: cell-based, human; settings: for IC50: Homo sapiens
In short: as §1

[1] = 96 h, IC50 (4 days), CellTiter-Glo, read-out: MOLM-13 IC50
[2] = MV4-11, 96 h, MV-4:11 cells, IC50 (4 days), CellTiter-Glo, read-out: MV-4:11 IC50
[3] = K562, 96 h, K-562 cells, IC50 (4 days), CellTiter-Glo, read-out: K-562 IC50
[4] = read-out: IC50 in MOLM-13 cells
[5] = MV4-11 cells, read-out: IC50 in MV4-11 cells
[6] = K562 cells, read-out: IC50 in K562 cells

IC50 (MOLM-13; [1]) | IC50 (FLT3-ITD) | IC50 (MV-4-11; [2]) | IC50 (WT FLT3) | IC50 (K-562; [3]) | IC50 (MOLM-13; [4]) | IC50 (MV-4-11; [5]) | IC50 (K-562; [6]) | Structure (SMILES) | Ymax in MOLM-13 cells (MOLM-13) | Ymax in MV4-11 cells (MV-4-11; MV4-11 cells) | Ymax in K562 cells (K-562; K562 cells)
0.001 to 0.01 µM | 0.000201 to 0.0005 µM | < 0.001 µM | 0.000501 to 0.001 µM | > 0.5 µM |  |  |  | CCc1nc(C(N)=O)c(Nc2ccnc(CCNC(=O)CN(C)C(=O)/C=C/CN(C)C)c2)nc1N(C)CC [Compound 606, (E)-3-((2-(2-(2-(4-(dimethylamino)-N-methylbut-2-enamido)acetamido)ethyl)pyridin-4-yl)amino)-6-ethyl-5-(ethyl(methyl)amino)pyrazine-2-carboxamide] |  |  | 
> 0.5 µM | > 0.001 µM | > 0.5 µM | > 0.001 µM | > 0.5 µM | > 0.1 µM | > 0.1 µM | > 0.1 µM | C=CC(=O)Nc1cccc(Nc2nc(N3CCC[C@H](NC(=O)c4ccc(C5CC5)cc4)[C@@H]3C)cnc2C(N)=O)c1 [Compound C-1, reference compound] | 0% | 9.7% | 0%
0.01 to 0.1 µM | 0.000501 to 0.001 µM | 0.001 to 0.01 µM | 0.000501 to 0.001 µM | 0.01 to 0.1 µM | 0.0192 µM | 0.005 µM | 0.044 µM | C=CC(=O)Nc1cc(Nc2nc(NC3CCOCC3)c(CC)nc2C(N)=O)ccc1N1CCC(N2CCN(C)CC2)CC1 [Compound C-2, reference compound] | 98.6% | 99.1% | 95.8%
> 0.5 µM | > 0.001 µM | > 0.5 µM | > 0.001 µM | > 0.5 µM | > 0.1 µM | > 0.1 µM | > 0.1 µM | C=CC(=O)Nc1cc(Nc2nc(N[C@H]3CC[C@@](C)(O)CC3)c(CC)nc2C(N)=O)ccc1C [Compound C-3, reference compound] | 0% | 6.8% | 0%
